From PubChem BioAssay (NCI)
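Where inhibition never reached the appropriate level, the endpoint shown equals the highest concentration tested. Otherwise, values were interpolated linearly from a five-concentration, 48-hour dose response in 96-well plates. Here, GI50 denotes the concentration required for 50% inhibition of growth. TGI is the concentration that stops growth completely.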

What was measured:
Assay in all cases: inhibition of tumour cell growth, NCI panel, 48 h
DU-145 prostate = test system: DU-145 prostate
CAKI-1 renal = test system: CAKI-1 renal
RPMI-8226 leukemia = test system: RPMI-8226 leukemia
MOLT-4 leukemia = test system: MOLT-4 leukemia
HOP-62 NSCLC = test system: HOP-62 NSCLC
SK-MEL-5 melanoma = test system: SK-MEL-5 melanoma
OVCAR-8 ovarian = test system: OVCAR-8 ovarian
EKVX NSCLC = test system: EKVX NSCLC
OVCAR-4 ovarian = test system: OVCAR-4 ovarian
786-0 renal = test system: 786-0 renal
KM12 colon = test system: KM12 colon
A498 renal = test system: A498 renal
COLO 205 colon = test system: COLO 205 colon
UACC-257 melanoma = test system: UACC-257 melanoma
NCI/ADR-RES ovarian = test system: NCI/ADR-RES ovarian
CCRF-CEM leukemia = test system: CCRF-CEM leukemia
NCI-H522 lung = test system: NCI-H522 lung
MCF7 breast = test system: MCF7 breast
HS 578T breast = test system: HS 578T breast
NCI-H460 lung = test system: NCI-H460 lung
K-562 leukemia = test system: K-562 leukemia
TK-10 renal = test system: TK-10 renal
NCI-H226 lung = test system: NCI-H226 lung
SF-295 CNS = test system: SF-295 CNS
SK-OV-3 ovarian = test system: SK-OV-3 ovarian
SF-539 CNS = test system: SF-539 CNS
LOX IMVI melanoma = test system: LOX IMVI melanoma
OVCAR-5 ovarian = test system: OVCAR-5 ovarian
IGROV1 ovarian = test system: IGROV1 ovarian
PC-3 prostate = test system: PC-3 prostate
HCT-116 colon = test system: HCT-116 colon
UO-31 renal = test system: UO-31 renal
HL-60(TB) leukemia = test system: HL-60(TB) leukemia
MDA-MB-435 = test system: MDA-MB-435
U251 CNS = test system: U251 CNS
MDA-MB-231 breast = test system: MDA-MB-231 breast
SF-268 CNS = test system: SF-268 CNS
SNB-75 CNS = test system: SNB-75 CNS
HT29 colon = test system: HT29 colon
SNB-19 CNS = test system: SNB-19 CNS
SW-620 colon = test system: SW-620 colon
NCI-H23 lung = test system: NCI-H23 lung
HCC-2998 colon = test system: HCC-2998 colon
SK-MEL-28 melanoma = test system: SK-MEL-28 melanoma
SN12C renal = test system: SN12C renal
BT-549 breast = test system: BT-549 breast
T-47D breast = test system: T-47D breast
MALME-3M melanoma = test system: MALME-3M melanoma
A549 NSCLC = test system: A549 NSCLC
HOP-92 NSCLC = test system: HOP-92 NSCLC
M14 melanoma = test system: M14 melanoma
HCT-15 colon = test system: HCT-15 colon

Molecule `C#C[C@]1(O)CC[C@H]2[C@@H]3CC=C4c5sc(Nc6ccc(OC)nc6)nc5CC[C@]4(C)[C@H]3CC[C@@]21C` has a GI50 (DU-145 prostate) of 2.01 µM, a TGI (DU-145 prostate) of 10 µM and a GI50 (CAKI-1 renal) of 1.28 µM. For the same molecule, the TGI (CAKI-1 renal) was 3.76 µM, the GI50 (RPMI-8226 leukemia) was 0.222 µM and the TGI (RPMI-8226 leukemia) was 1.19 µM. For the same molecule, the GI50 (MOLT-4 leukemia) was 0.39 µM, the TGI (MOLT-4 leukemia) was 2.41 µM and the GI50 (HOP-62 NSCLC) was 1.66 µM. It also gave a TGI (HOP-62 NSCLC) of 8.8 µM, a GI50 (SK-MEL-5 melanoma) of 1.93 µM and a TGI (SK-MEL-5 melanoma) of 4.54 µM. For the same molecule, the GI50 (OVCAR-8 ovarian) was 1.8 µM, the TGI (OVCAR-8 ovarian) was 5.46 µM and the GI50 (EKVX NSCLC) was 1.6 µM. The TGI (EKVX NSCLC) was 21.3 µM, the GI50 (OVCAR-4 ovarian) was 3.51 µM and the TGI (OVCAR-4 ovarian) was greater than 100 µM. It also gave a GI50 (786-0 renal) of 0.413 µM, a TGI (786-0 renal) of 1.97 µM and a GI50 (KM12 colon) of 2.1 µM. For the same molecule, the TGI (KM12 colon) was 12.2 µM, the GI50 (A498 renal) was 0.769 µM and the TGI (A498 renal) was 5.88 µM. The GI50 (COLO 205 colon) was 1.78 µM, the TGI (COLO 205 colon) was 3.37 µM and the GI50 (UACC-257 melanoma) was 1.55 µM. It also gave a TGI (UACC-257 melanoma) of 3.18 µM, a GI50 (NCI/ADR-RES ovarian) of 2.36 µM and a TGI (NCI/ADR-RES ovarian) greater than 100 µM. The GI50 (CCRF-CEM leukemia) was 0.805 µM, the TGI (CCRF-CEM leukemia) was 6.24 µM and the GI50 (NCI-H522 lung) was 1.43 µM. The TGI (NCI-H522 lung) was 3.02 µM, the GI50 (MCF7 breast) was 0.789 µM and the TGI (MCF7 breast) was 2.54 µM. For the same molecule, the GI50 (HS 578T breast) was 0.231 µM, the TGI (HS 578T breast) was 1.61 µM and the GI50 (NCI-H460 lung) was 1.92 µM. It also gave a TGI (NCI-H460 lung) of 5.89 µM, a GI50 (K-562 leukemia) of 0.907 µM and a TGI (K-562 leukemia) of 12.8 µM. The GI50 (TK-10 renal) was 2.28 µM, the TGI (TK-10 renal) was 4.81 µM and the GI50 (NCI-H226 lung) was 2.02 µM. The TGI (NCI-H226 lung) was 13.4 µM, the GI50 (SF-295 CNS) was 0.302 µM and the TGI (SF-295 CNS) was 1.23 µM. It also gave a GI50 (SK-OV-3 ovarian) of 1.26 µM, a TGI (SK-OV-3 ovarian) of 6.16 µM and a GI50 (SF-539 CNS) of 0.366 µM. For the same molecule, the TGI (SF-539 CNS) was 2.15 µM, the GI50 (LOX IMVI melanoma) was 1.15 µM and the TGI (LOX IMVI melanoma) was 2.79 µM. It also gave a GI50 (OVCAR-5 ovarian) of 2.49 µM, a TGI (OVCAR-5 ovarian) of 15.1 µM and a GI50 (IGROV1 ovarian) of 2.04 µM. It also gave a TGI (IGROV1 ovarian) of 7.4 µM, a GI50 (PC-3 prostate) of 0.739 µM and a TGI (PC-3 prostate) of 4.92 µM. The GI50 (HCT-116 colon) was 1.13 µM, the TGI (HCT-116 colon) was 2.49 µM and the GI50 (UO-31 renal) was 0.83 µM. For the same molecule, the TGI (UO-31 renal) was 2.13 µM, the GI50 (HL-60(TB) leukemia) was 0.493 µM and the TGI (HL-60(TB) leukemia) was 3.71 µM. The GI50 (MDA-MB-435) was 1.84 µM, the TGI (MDA-MB-435) was 4.9 µM and the GI50 (U251 CNS) was 0.654 µM. For the same molecule, the TGI (U251 CNS) was 2.81 µM, the GI50 (MDA-MB-231 breast) was 1.71 µM and the TGI (MDA-MB-231 breast) was 9.34 µM. The GI50 (SF-268 CNS) was 2.01 µM, the TGI (SF-268 CNS) was 17.4 µM and the GI50 (SNB-75 CNS) was 0.37 µM. The TGI (SNB-75 CNS) was 3.9 µM, the GI50 (HT29 colon) was 1.31 µM and the TGI (HT29 colon) was 3.24 µM. It also gave a GI50 (SNB-19 CNS) of 1.36 µM, a TGI (SNB-19 CNS) of 68.8 µM and a GI50 (SW-620 colon) of 1.49 µM. It also gave a TGI (SW-620 colon) of 3.4 µM, a GI50 (NCI-H23 lung) of 1.65 µM and a TGI (NCI-H23 lung) of 4.47 µM. It also gave a GI50 (HCC-2998 colon) of 1.7 µM, a TGI (HCC-2998 colon) of 3.81 µM and a GI50 (SK-MEL-28 melanoma) of 1.5 µM. The TGI (SK-MEL-28 melanoma) was 3.72 µM, the GI50 (SN12C renal) was 2.22 µM and the TGI (SN12C renal) was 7.61 µM. For the same molecule, the GI50 (BT-549 breast) was 0.944 µM, the TGI (BT-549 breast) was 2.89 µM and the GI50 (T-47D breast) was 1.47 µM. The TGI (T-47D breast) was 3.78 µM, the GI50 (MALME-3M melanoma) was 1.54 µM and the TGI (MALME-3M melanoma) was 3.21 µM. It also gave a GI50 (A549 NSCLC) of 2.2 µM, a TGI (A549 NSCLC) of 18 µM and a GI50 (HOP-92 NSCLC) of 1.03 µM. For the same molecule, the TGI (HOP-92 NSCLC) was 2.95 µM, the GI50 (M14 melanoma) was 1.47 µM and the TGI (M14 melanoma) was 3.47 µM. For the same molecule, the GI50 (HCT-15 colon) was 1.07 µM and the TGI (HCT-15 colon) was 8.28 µM.
